From patent US10168342B2, “Lipid probes and uses thereof” (THE SCRIPPS RESEARCH INSTITUTE, priority 2015, dated 2019) come the findings set out here.

Holding throughout (assay): In situ competitive SILAC profiling with A-DA probe in (PMA-stimulated) A549 cells
Common to all, as to conditions: A549 cells, A-DA probe

Test [1] addresses T1, A-DA lipid probe targets in A549 cells (Homo sapiens, UniProt P35354).
T1 sequence (P35354 18-604): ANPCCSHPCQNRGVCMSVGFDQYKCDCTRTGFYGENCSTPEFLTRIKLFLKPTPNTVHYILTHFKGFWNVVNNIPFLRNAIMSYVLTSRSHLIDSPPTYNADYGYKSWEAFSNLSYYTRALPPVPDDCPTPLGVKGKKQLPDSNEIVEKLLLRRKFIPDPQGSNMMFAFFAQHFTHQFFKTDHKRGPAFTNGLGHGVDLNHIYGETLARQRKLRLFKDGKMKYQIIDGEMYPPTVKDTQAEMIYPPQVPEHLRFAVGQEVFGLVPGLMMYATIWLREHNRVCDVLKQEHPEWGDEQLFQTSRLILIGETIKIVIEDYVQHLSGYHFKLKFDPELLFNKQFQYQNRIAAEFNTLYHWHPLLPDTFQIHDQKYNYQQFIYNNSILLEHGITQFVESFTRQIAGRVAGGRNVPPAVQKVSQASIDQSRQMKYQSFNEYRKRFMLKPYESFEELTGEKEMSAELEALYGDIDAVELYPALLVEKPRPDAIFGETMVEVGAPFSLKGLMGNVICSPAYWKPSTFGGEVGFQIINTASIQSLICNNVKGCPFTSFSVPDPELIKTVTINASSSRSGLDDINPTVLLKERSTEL

Test [2] deals with T2, A-DA lipid probe targets in A549 cells (Homo sapiens, UniProt O15173).
T2 sequence (O15173 1-223): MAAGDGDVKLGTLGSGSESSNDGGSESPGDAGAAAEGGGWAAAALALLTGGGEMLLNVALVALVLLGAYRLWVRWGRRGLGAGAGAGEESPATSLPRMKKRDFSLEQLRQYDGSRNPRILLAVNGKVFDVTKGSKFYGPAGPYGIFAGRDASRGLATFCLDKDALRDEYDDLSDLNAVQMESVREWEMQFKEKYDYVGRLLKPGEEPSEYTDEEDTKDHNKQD

Test [3] addresses T3, A-DA lipid probe targets in A549 cells (Homo sapiens, UniProt Q7Z2K6).
T3 sequence (Q7Z2K6 1-904): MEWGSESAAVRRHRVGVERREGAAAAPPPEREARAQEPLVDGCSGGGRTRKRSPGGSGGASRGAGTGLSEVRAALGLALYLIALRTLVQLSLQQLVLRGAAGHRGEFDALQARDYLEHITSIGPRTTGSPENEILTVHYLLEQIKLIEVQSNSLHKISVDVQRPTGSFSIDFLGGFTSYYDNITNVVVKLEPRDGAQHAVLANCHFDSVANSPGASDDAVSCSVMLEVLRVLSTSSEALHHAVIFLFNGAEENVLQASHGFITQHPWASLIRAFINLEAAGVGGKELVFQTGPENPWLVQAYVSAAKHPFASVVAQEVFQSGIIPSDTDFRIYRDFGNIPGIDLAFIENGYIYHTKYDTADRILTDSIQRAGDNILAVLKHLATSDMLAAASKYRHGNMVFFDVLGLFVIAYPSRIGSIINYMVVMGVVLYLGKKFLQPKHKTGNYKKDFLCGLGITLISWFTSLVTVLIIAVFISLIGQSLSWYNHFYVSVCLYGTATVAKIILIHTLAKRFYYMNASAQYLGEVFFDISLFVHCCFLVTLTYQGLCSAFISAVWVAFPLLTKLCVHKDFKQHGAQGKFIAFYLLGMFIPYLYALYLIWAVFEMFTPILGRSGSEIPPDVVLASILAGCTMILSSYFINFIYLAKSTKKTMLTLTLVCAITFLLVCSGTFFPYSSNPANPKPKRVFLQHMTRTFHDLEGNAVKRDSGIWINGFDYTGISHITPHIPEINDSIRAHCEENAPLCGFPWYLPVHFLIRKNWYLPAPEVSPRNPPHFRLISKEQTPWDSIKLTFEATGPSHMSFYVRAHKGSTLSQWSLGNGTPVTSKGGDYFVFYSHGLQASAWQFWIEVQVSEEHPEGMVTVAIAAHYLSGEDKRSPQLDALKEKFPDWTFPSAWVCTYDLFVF

Test [4] concerns the target T4, A-DA lipid probe targets in A549 cells (Homo sapiens, UniProt Q9NS69).
T4 sequence (Q9NS69 1-142): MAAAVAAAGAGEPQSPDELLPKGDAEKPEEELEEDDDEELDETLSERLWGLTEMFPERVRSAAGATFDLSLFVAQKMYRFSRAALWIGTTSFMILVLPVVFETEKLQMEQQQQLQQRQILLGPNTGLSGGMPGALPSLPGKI

For test [5], the target named is T5, A-DA lipid probe targets in A549 cells (Homo sapiens, UniProt P30519).
T5 sequence (P30519 1-316): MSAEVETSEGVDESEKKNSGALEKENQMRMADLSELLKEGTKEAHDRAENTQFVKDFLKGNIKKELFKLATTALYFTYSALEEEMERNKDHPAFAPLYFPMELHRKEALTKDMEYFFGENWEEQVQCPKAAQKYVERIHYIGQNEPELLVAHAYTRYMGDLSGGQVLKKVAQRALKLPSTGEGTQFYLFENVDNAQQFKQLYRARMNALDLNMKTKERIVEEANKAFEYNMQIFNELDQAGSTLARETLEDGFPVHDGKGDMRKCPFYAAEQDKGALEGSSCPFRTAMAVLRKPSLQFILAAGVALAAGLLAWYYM

The target of test [6] is T6, A-DA lipid probe targets in A549 cells (Homo sapiens, UniProt Q8N5I4).
T6 sequence (Q8N5I4 1-330): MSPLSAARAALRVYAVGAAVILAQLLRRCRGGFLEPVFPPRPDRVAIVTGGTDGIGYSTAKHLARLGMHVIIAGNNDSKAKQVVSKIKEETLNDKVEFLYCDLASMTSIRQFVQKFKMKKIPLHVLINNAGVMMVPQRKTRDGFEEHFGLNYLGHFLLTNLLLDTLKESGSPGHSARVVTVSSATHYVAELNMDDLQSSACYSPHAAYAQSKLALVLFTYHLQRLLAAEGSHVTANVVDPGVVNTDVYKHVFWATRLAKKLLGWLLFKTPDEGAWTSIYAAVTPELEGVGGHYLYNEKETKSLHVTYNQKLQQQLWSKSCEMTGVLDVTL

As for `O=C(/C=C/c1cccnc1)NCCCCC1CCN(C(=O)c2ccccc2)CC1` [FK-866, reference compound], the “SILAC ratio, PTGS2 (P35354)” value in test [1] (competitor 25 μM) turned out to be 1.9. The “SILAC ratio, PGRMC2 (Q80UU9)” value in test [2] (competitor 25 μM) was determined as 1.2. Also, in test [3] (competitor 25 μM), the “SILAC ratio, ERMP1 (Q7Z2K6)” value was 1.6. Also, in test [4] (competitor 25 μM), the “SILAC ratio, TOMM22 (Q9CPQ3)” value is listed as 1.3. Further, in test [5] (competitor 25 μM), the “SILAC ratio, HMOX2 (P30519)” value is 1.3. Further, in test [6] (competitor 25 μM), the “SILAC ratio, DHRSX (Q8N5I4)” value stood at 1.4.

With `C=CCN(C)CCCCCCOc1ccc(C(=O)c2ccc(Br)cc2)c(F)c1` [Ro488071], the results for the “SILAC ratio, PTGS2 (P35354)” value in test [1] (competitor 5 μM) and in test [1] (competitor 50 μM) were 2.5 and 3.3, respectively. For the same compound, the “SILAC ratio, PGRMC2 (Q80UU9)” value in test [2] (competitor 5 μM) came out at 1.6; in test [2] (competitor 50 μM) it was 2.1. In addition, the “SILAC ratio, ERMP1 (Q7Z2K6)” value in test [3] (competitor 5 μM) came to 1.4; in test [3] (competitor 50 μM), 3.2. The “SILAC ratio, TOMM22 (Q9CPQ3)” value in test [4] (competitor 5 μM) and in test [4] (competitor 50 μM) was 1.4 throughout. Further, the “SILAC ratio, HMOX2 (P30519)” value in test [5] (competitor 5 μM) is 1.3; in test [5] (competitor 50 μM), 3.4. Moreover, the “SILAC ratio, DHRSX (Q8N5I4)” value in test [6] (competitor 5 μM) is reported as 1.6; in test [6] (competitor 50 μM) it was 2.7.
